According to patent US20200392161A1, “SHP2 PHOSPHATASE INHIBITORS AND METHODS OF USE THEREOF” (Relay Therapeutics, Inc., priority 2018, published 2020):
pIC50: −log10 of the molar value. Structures can show the parent of a compound that is named as a salt.

Biological target: T1, SHP2 (Homo sapiens, UniProt Q06124)
T1 sequence (Q06124 1-593): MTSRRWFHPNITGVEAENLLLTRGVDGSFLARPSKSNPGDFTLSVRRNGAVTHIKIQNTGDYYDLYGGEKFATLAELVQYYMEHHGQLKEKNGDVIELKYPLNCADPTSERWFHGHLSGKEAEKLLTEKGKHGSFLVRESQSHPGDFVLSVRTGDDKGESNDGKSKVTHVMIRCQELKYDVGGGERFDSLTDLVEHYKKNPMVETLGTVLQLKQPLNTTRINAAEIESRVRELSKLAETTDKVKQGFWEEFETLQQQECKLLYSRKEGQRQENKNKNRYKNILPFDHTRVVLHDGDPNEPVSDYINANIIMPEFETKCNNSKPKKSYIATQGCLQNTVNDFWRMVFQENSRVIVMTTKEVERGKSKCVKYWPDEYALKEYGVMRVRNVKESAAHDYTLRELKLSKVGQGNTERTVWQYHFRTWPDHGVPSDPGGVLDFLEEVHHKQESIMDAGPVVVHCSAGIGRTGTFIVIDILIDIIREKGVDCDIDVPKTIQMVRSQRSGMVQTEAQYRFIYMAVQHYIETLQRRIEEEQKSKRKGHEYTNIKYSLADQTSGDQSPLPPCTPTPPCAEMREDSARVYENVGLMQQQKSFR
Assay: SHP2 allosteric inhibition assay (DiFMUP prompt fluorescence)
Format: biochemical
Conditions: 0.25 nM SHP2, 0.5 μM IRS1_pY1172(dPEG8)pY1222 peptide, DiFMUP 100 μM
Source text: SHP2 Allosteric Inhibition Assay.
SHP2 is allosterically activated through binding of bis-tyrosyl-phosphorylated peptides to its Src Homology 2 (SH2) domains. The latter activation step leads to the release of the auto-inhibitory interface of SHP2, which in turn renders the SHP2 protein tyrosine phosphatase (PTP) active and available for substrate recognition and reaction catalysis. The catalytic activity of SHP2 was monitored using the surrogate substrate DiFMUP in a prompt fluorescence assay format.
The inhibitor dose response curves were analyzed using normalized IC50 regression curve fitting with control based normalization.

pIC50 (Table 3) | Structure (SMILES) | further results
> 3.30 | c1nnc(SCc2csc(-c3ccc4c(c3)OCO4)n2)s1 [Compound C13] | –
< 3.00 | COc1ccc(-c2nc(CSc3nnc(N(C(C)=O)C4CC4)s3)cs2)cc1OC [Compound C38] | –
> 3.30 | COc1cc(-c2nc(Cn3cccc(C(F)(F)F)c3=O)cs2)ccc1O [Compound C21] | –
< 3.00 | Cc1nc(-c2ccc(C(F)(F)F)cc2)sc1C(=O)N1CC[C@@H](N)C1 [Compound C44] | –
< 3.00 | COc1ccc(-c2nc(CSc3nnnn3C3CC3)cs2)cc1OC [Compound C25] | –
3.00 to 3.30 | c1coc(-c2nc(CSc3nncs3)cs2)c1 [Compound C8] | –
3.00 to 3.30 | COc1ccc(-c2nc(CSc3nnc(NCC4CCCO4)s3)cs2)cc1OC (stereo not shown) [Compound C19] | –
> 3.30 | COc1cc(-c2nc(CSc3nncs3)cs2)ccc1O [Compound C4] | –
3.00 to 3.30 | O=C(Nc1cc(C(F)(F)F)cc(C(F)(F)F)c1)c1csc(-c2cccc(Cl)c2Cl)n1 [Compound C3] | –
< 3.00 | CCOc1ccc(-c2nc(CSc3nncs3)cs2)cc1OC [Compound C23] | –
< 3.00 | c1cc(-c2nc(CSc3nncs3)cs2)co1 [Compound C24] | –
< 3.00 | COc1ccc(-c2nc(CSc3nncs3)cs2)cc1 [Compound C28] | –
< 3.00 | Clc1ccc(-c2nc(CSc3nncs3)cs2)cc1 [Compound C27] | –
< 3.00 | O=C(O)c1csc(-c2ncccc2Cl)n1 [Compound C43] | –
> 3.30 | CC1(N)CCN(C(=O)c2csc(-c3ccccc3Cl)n2)CC1 [Compound C1, (4-amino-4-methylpiperidin-1-yl)(2-(2-chlorophenyl)thiazol-4-yl)methanone formate] | –
< 3.00 | COc1ccc(-c2nc(CSc3nncn3-c3ccccc3)cs2)cc1OC [Compound C29] | –
3.00 to 3.30 | COc1ccc(-c2nc(CSc3nnc(C4CC4)n3N)cs2)cc1OC [Compound C10] | –

Continued, molecule first:

Structure (SMILES) | pIC50 (Table 3) | further results
Cn1c(N2CCC(C)(CN)CC2)nc2[nH]nc(Sc3cccc(Cl)c3)c2c1=O [Compound F8, 6-(4-(aminomethyl)-4-methylpiperidin-1-yl)-3-((3-chlorophenyl)thio)-5-methyl-1H-pyrazolo[3,4-d]pyrimidin-4(5H)-one] | – | pIC50 (Table 6): > 6.00
C[C@@H]1OCC2(CCN(c3nc4[nH]nc(N5CCc6ccccc6C5)c4c(=O)n3C)CC2)[C@@H]1N [Compound F12, 6-[(3S,4S)-4-amino-3-methyl-2-oxa-8-azaspiro[4.5]decan-8-yl]-5-methyl-3-(1,2,3,4-tetrahydroisoquinolin-2-yl)-1H,4H,5H-pyrazolo[3,4-d]pyrimidin-4-one] | – | pIC50 (Table 6): > 6.00
Cc1c(-c2ccccc2Cl)nc2sc(N3CCC(C)(CN)C3)nn12 (stereo not shown) [Compound A10, (1-(6-(2-chlorophenyl)-5-methylimidazo[2,1-b][1,3,4]thiadiazol-2-yl)-3-methylpyrrolidin-3-yl)methanamine formate] | – | pIC50 (Table 1): > 5.30
CC1(N)CCN(c2cc(=O)nc3[nH]nc(-c4cccc(Cl)c4F)n23)CC1 [Compound F2, 5-(4-amino-4-methylpiperidin-1-yl)-3-(3-chloro-2-fluorophenyl)-[1,2,4]triazolo[4,3-a]pyrimidin-7(1H)-one hydrochloride] | – | pIC50 (Table 6): < 4.70
COc1nc(N2CCC(C)(N)CC2)nc2[nH]nc(-c3cccc(Cl)c3Cl)c12 [Compound F9, 1-[3-(2,3-dichlorophenyl)-4-methoxy-1H-pyrazolo[3,4-d]pyrimidin-6-yl]-4-methyl-piperidin-4-amine] | – | pIC50 (Table 6): > 6.00
CC1(CN)CCN(c2nn3c(N)c(-c4cccc(Cl)c4Cl)nc3s2)C1 (stereo not shown) [Compound A5, 2-(3-(aminomethyl)-3-methylpyrrolidin-1-yl)-6-(2,3-dichlorophenyl)imidazo[2,1-b][1,3,4]thiadiazol-5-amine] | – | pIC50 (Table 1): > 5.30
Cc1cc2occ(-c3ccccc3Cl)n2n1 [Compound E3, 3-(2-chlorophenyl)-6-methylpyrazolo[5,1-b]oxazole] | – | pIC50 (Table 5): < 4.00
NCC1CCN(C(=O)c2csc(-c3ccccc3F)n2)C1 (stereo not shown) [Compound C49] | < 3.00 | –
Clc1ccccc1-c1coc2ccnn12 [Compound E4, 3-(2-chlorophenyl)pyrazolo[5,1-b]oxazole] | – | pIC50 (Table 5): < 4.00
CC1(N)CCN(c2ncnc3c(-c4cccc(Cl)c4Cl)csc23)CC1 [Compound D1, 1-(7-(2,3-dichlorophenyl)thieno[3,2-d]pyrimidin-4-yl)-4-methylpiperidin-4-amine formate] | – | pIC50 (Table 4): 5.00 to 6.00
CC1(CN)CCN(c2cnn3c(-c4ccccc4Cl)coc23)C1 (stereo not shown) [Compound E2, (1-(3-(2-chlorophenyl)pyrazolo[5,1-b]oxazol-7-yl)-3-methylpyrrolidin-3-yl)methanamine] | – | pIC50 (Table 5): > 4.30
c1ccc(-c2nc(CSc3nncs3)cs2)cc1 [Compound C40] | < 3.00 | –
CC1(CN)CCN(c2ncnc3c(-c4cccc(Cl)c4Cl)csc23)CC1 [Compound D2, (1-(7-(2,3-dichlorophenyl)thieno[3,2-d]pyrimidin-4-yl)-4-methylpiperidin-4-yl)methanamine] | – | pIC50 (Table 4): 5.00 to 6.00
CCOc1ccc(-c2nc(CSc3nnc(C)s3)cs2)cc1OC [Compound C36] | < 3.00 | –
CC1(CN)CCN(c2ncc(C(=O)N3CCCc4ncccc43)s2)C1 (stereo not shown) [Compound B2, (2-(3-(aminomethyl)-3-methylpyrrolidin-1-yl)thiazol-5-yl)(3,4-dihydro-1,5-naphthyridin-1(2H)-yl)methanone] | – | pIC50 (Table 2): < 4.00
CC1(CN)CCN(c2nn3cc(C(=O)N4CCCc5ncccc54)nc3s2)C1 (stereo not shown) [Compound A8, (2-(3-(aminomethyl)-3-methylpyrrolidin-1-yl)imidazo[2,1-b][1,3,4]thiadiazol-6-yl)(3,4-dihydro-1,5-naphthyridin-1(2H)-yl)methanone formate] | – | pIC50 (Table 1): < 4.70
CC1(N)CCN(c2nn3c(N)c(-c4cccc(Cl)c4Cl)nc3s2)CC1 [Compound A4, 2-(4-amino-4-methylpiperidin-1-yl)-6-(2,3-dichlorophenyl)imidazo[2,1-b][1,3,4]thiadiazol-5-amine formate] | – | pIC50 (Table 1): < 4.70
Cc1c(-c2ccccc2Cl)nc2sc(N3CCC(C)(CN)CC3)nn12 [Compound A7, (1-(6-(2-chlorophenyl)-5-methylimidazo[2,1-b][1,3,4]thiadiazol-2-yl)-4-methylpiperidin-4-yl)methanamine formate] | – | pIC50 (Table 1): > 5.30
COc1cc(-c2nc(CN(C)Cc3ccco3)cs2)ccc1O [Compound C37] | < 3.00 | –
CC1(N)CCN(c2cnn3c(-c4ccccc4Cl)coc23)CC1 [Compound E1, 1-(3-(2-chlorophenyl)pyrazolo[5,1-b]oxazol-7-yl)-4-methylpiperidin-4-amine formate] | – | pIC50 (Table 5): 4.00 to 4.30
CC1(N)CCCN(c2nn3c(N)c(-c4cccc(Cl)c4Cl)nc3s2)C1 (stereo not shown) [Compound A1, 2-(3-amino-3-methylpiperidin-1-yl)-6-(2,3-dichlorophenyl)imidazo[2,1-b][1,3,4]thiadiazol-5-amine formate] | – | pIC50 (Table 1): > 5.30
COc1cc(-c2nc(CSc3nnc(-c4ccc(C)cc4C)o3)cs2)ccc1O [Compound C34] | < 3.00 | –
O=C(O)c1csc(-c2ccc(Cl)cc2Cl)n1 [Compound C5] | 3.00 to 3.30 | –
CC1(CN)CCN(c2nn3c(N)c(-c4ccccc4Cl)nc3s2)C1 (stereo not shown) [Compound A6, 2-(3-(aminomethyl)-3-methylpyrrolidin-1-yl)-6-(2-chlorophenyl)imidazo[2,1-b][1,3,4]thiadiazol-5-amine] | – | pIC50 (Table 1): 4.70 to 5.30
COc1cc(-c2nc(CN3CCOCC3C)cs2)ccc1O (stereo not shown) [Compound C22] | < 3.00 | –
Cc1c(-c2ccccc2Cl)nc2sc(N3CCC(C)(N)C3)nn12 (stereo not shown) [Compound A11, 1-(6-(2-chlorophenyl)-5-methylimidazo[2,1-b][1,3,4]thiadiazol-2-yl)-3-methylpyrrolidin-3-amine formate] | – | pIC50 (Table 1): > 5.30
CC1(N)CCN(c2nc(N)c(-c3cccc(Cl)c3Cl)s2)CC1 [Compound B1, 2-(4-amino-4-methyl-1-piperidyl)-5-(2,3-dichlorophenyl)thiazol-4-amine, dihydrochloride] | – | pIC50 (Table 2): > 4.00
Cn1c(N2CCC(C)(CN)CC2)nc2[nH]nc(Sc3cccc(Cl)c3Cl)c2c1=O [Compound F7, 6-(4-(aminomethyl)-4-methylpiperidin-1-yl)-3-((2,3-dichlorophenyl)thio)-5-methyl-1H-pyrazolo[3,4-d]pyrimidin-4(5H)-one hydrochloride] | – | pIC50 (Table 6): > 6.00
COc1ccc(-c2nc(CSc3cccc[n+]3[O-])cs2)cc1OC [Compound C16] | > 3.30 | –
